Experimental data published in publication PMC6310865 (Proceedings of the National Academy of Sciences of the …, 2018).

Test system: CD4+ T cells
Type: cell-based, human
Settings: all cases versus controls; […]

Substance | Tetramer-positive CD4+ T cells in T1N cases versus DQ0602 controls
NP261–275: nucleoprotein epitope shared between A/California/07/2009 and PR8 (RSALILRGSVAHKSC; UniProt P03466 261-275, looked up, fragment) | little to no significant differences
NP17–31: nucleoprotein epitope, PR8 specific (GERQNATEIRASVGK) | significant overabundance
